Where only a bound is given, the exact number is not on record here.

For the assay, the target named is T1, Dimer of Gag-Pol polyprotein [489-587] (Human immunodeficiency virus 1, UniProt P12497).
T1 construct: 489-587
Kind of assay: Protease Inhibition Assay. The following applies: pH 6.4; 25 °C. Here is the method: IC50 values for inhibition of recombinant HIV protease were determined using the spectrofluorometric assay, which utilized an intramolecularly quenched fluorogenic substrate, 2-(aminobenzoyl)-Thr-Ile-Nle-Phe(p-NO2)-Gln-ArgNH2. Cleavage of the substrate by HIV protease released the fluorescent N-terminal tripeptide from its close apposition to the quenching nitrobenzyl group, resulting in enhanced fluorescence.
Molecule `CCCCNC(=O)N(C)C[C@@H](O)[C@H](Cc1ccccc1)NC(=O)[C@H](CC(N)=O)NC(=O)OCc1ccccc1` [benzyl N-[(1S)-1-{[(2S,3R)-4-[(butylcarbamoyl)(methyl)amino]-3-hydroxy-1-phenylbutan-2-yl]carbamoyl}-2-carbamoylethyl]carbamate] had a concentration for half-maximal inhibition (IC50) of more than 10 µM. The molecule `CNC(=O)N(C)C[C@@H](O)[C@H](Cc1ccccc1)NC(=O)[C@H](CC(N)=O)NC(=O)OCc1ccccc1` [benzyl N-[(1S)-2-carbamoyl-1-{[(2S,3R)-3-hydroxy-4-[methyl(methylcarbamoyl)amino]-1-phenylbutan-2-yl]carbamoyl}ethyl]carbamate] returned an IC50 of more than 10 µM.

`CCCCNC(=O)N(CC(C)C)C[C@H](O)[C@H](Cc1ccccc1)NC(=O)[C@H](CC(N)=O)NC(=O)OCc1ccccc1` [benzyl N-[(1S)-1-{[(2S,3S)-4-[(butylcarbamoyl)(2-methylpropyl)amino]-3-hydroxy-1-phenylbutan-2-yl]carbamoyl}-2-carbamoylethyl]carbamate] had an IC50 of more than 10 µM. With `CCCCNC(=O)N(C)C[C@H](O)[C@H](Cc1ccccc1)NC(=O)[C@H](CC(N)=O)NC(=O)OCc1ccccc1` [benzyl N-[(1S)-1-{[(2S,3S)-4-[(butylcarbamoyl)(methyl)amino]-3-hydroxy-1-phenylbutan-2-yl]carbamoyl}-2-carbamoylethyl]carbamate] the figure was more than 10 µM; with `CNC(=O)N(C)C[C@H](O)[C@H](Cc1ccccc1)NC(=O)[C@H](CC(N)=O)NC(=O)OCc1ccccc1` [benzyl N-[(1S)-2-carbamoyl-1-{[(2S,3S)-3-hydroxy-4-[methyl(methylcarbamoyl)amino]-1-phenylbutan-2-yl]carbamoyl}ethyl]carbamate], more than 10 µM. `CNC(=O)N(CC(C)C)C[C@H](O)[C@H](Cc1ccccc1)NC(=O)[C@H](CC(N)=O)NC(=O)OCc1ccccc1` [benzyl N-[(1S)-2-carbamoyl-1-{[(2S,3S)-3-hydroxy-4-[(methylcarbamoyl)(2-methylpropyl)amino]-1-phenylbutan-2-yl]carbamoyl}ethyl]carbamate] came in with an IC50 of more than 10 µM.

Values taken from BindingDB's records for doi:10.1021/jm00054a014 (Monsanto Corporate Research, 1993).
